Patent publication US20230340011A1 (Asteroid Therapeutics, priority 2022, published 2023)
pEC50, pIC50: −log10 of the molar value.

How the values were obtained:
[1] = biological target: LXRβ (Homo sapiens (Human), UniProt P55055); experiment: In vitro assay LXRβ: PathHunter NHR CHO cells, LXRβ / Steroid Receptor Co-activator Peptide enzyme fragment complementation; format: cell-based; details: PathHunter NHR CHO cells, full-length human LXRβ and SRCP, chemiluminescent signal; read-out: LXRβ PPI
Chain of LXRβ (P55055 whole entry, the tested form may be a part): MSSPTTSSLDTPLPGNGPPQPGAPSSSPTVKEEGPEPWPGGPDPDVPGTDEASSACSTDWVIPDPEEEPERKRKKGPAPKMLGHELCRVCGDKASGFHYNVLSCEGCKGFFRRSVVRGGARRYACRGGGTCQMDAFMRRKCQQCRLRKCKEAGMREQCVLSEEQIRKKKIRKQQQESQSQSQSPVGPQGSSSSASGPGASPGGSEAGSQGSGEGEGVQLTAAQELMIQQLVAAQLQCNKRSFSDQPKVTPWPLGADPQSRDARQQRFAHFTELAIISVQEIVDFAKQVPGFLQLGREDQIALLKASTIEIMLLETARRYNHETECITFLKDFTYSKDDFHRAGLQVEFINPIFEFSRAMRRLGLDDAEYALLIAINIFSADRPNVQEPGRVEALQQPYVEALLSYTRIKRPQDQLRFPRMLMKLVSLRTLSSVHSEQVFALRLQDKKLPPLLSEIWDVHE
How it was run: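 Co-activator recruitment measured by chemiluminescence after signal generation. The CHO line carries full-length human LXRβ tagged with ProLink and an SRCP–enzyme acceptor fusion in the nucleus; cells sat overnight at 37° C before testing, in charcoal-dextran filtered serum medium with 1% final vehicle.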

[2] = biological target: SREBP-2 (Homo sapiens (Human), UniProt Q12772); experiment: In vitro assay SREBP-2: PathHunter U2OS SREBP-2 Nuclear Translocation Cell Line, U18666A-stimulated; format: cell-based; details: PathHunter U2OS SREBP-2 nuclear translocation cells, U18666A 10 μM, overnight (16 hours)

| Compound | pEC50 [1] | pIC50 [2] |
| --- | --- | --- |
| C[C@H](CCC(=O)N1CCC(C)(CNS(C)(=O)=O)CC1)[C@H]1CC[C@H]2[C@@H]3CC=C4C[C@@H](O)CC[C@]4(C)[C@H]3CC[C@]12C [Example 367, N-({1-[(4R)-4-[(1R,3aS,3bS,7S,9aR,9bS,11aR)-7-hydroxy-9a,11a-dimethyl-1H,2H,3H,3aH,3bH,4H,6H,7H,8H,9H,9aH,9bH,10H,11H,11aH-cyclopenta[a]phenanthren-1-yl]pentanoyl]-4-methylpiperidin-4-yl}methyl)methanesulfonamide] | < 5.00 | > 6.60 |
| CC(C)OC(=O)N1CCN(C(=O)CC[C@@H](C)[C@H]2CC[C@H]3[C@@H]4CC=C5C[C@@H](O)CC[C@]5(C)[C@H]4CC[C@]23C)CC1 [Example 341, isopropyl4-((R)-4-((3S,8S,9S,10R,13R,14S,17R)-3-hydroxy-10,13-dimethyl-2,3,4,7,8,9,10,11,12,13,14,15,16,17-tetradecahydro-1H-cyclopenta[a]phenanthren-17-yl)pentanoyl)piperazine-1-carboxylate] | < 5.00 | > 6.60 |
| C[C@H](CCC(=O)N1CCN(C(=O)c2cnccn2)[C@@H](C)C1)[C@H]1CC[C@H]2[C@@H]3CC=C4C[C@@H](O)CC[C@]4(C)[C@H]3CC[C@]12C [Example 568, (R)-4-((3S,8S,9S,10R,13R,14S,17R)-3-hydroxy-10,13-dimethyl-2,3,4,7,8,9,10,11,12,13,14,15,16,17-tetradecahydro-1H-cyclopenta[a]phenanthren-17-yl)-1-((S)-3-methyl-4-(pyrazine-2-carbonyl)piperazin-1-yl)pentan-1-one] | < 5.00 | > 6.60 |
| CNC(=O)c1cccnc1OC[C@@H](C)[C@H]1CC[C@H]2[C@@H]3CC=C4C[C@@H](O)CC[C@]4(C)[C@H]3CC[C@]12C [Example 253, 2-((S)-2-((3S,8S,9S,10R,13S,14S,17R)-3-hydroxy-10,13-dimethyl-2,3,4,7,8,9,10,11,12,13,14,15,16,17-tetradecahydro-1H-cyclopenta[a]phenanthren-17-yl)propoxy)-N-methylnicotinamide] | < 5.00 | > 6.60 |
| C[C@H](CCC(=O)N1CCN(c2ccnnc2)CC1)[C@H]1CC[C@H]2[C@@H]3CC=C4C[C@@H](O)CC[C@]4(C)[C@H]3CC[C@]12C [Example 487, (R)-4-((3S,8S,9S,10R,13R,14S,17R)-3-hydroxy-10,13-dimethyl-2,3,4,7,8,9,10,11,12,13,14,15,16,17-tetradecahydro-1H-cyclopenta[a]phenanthren-17-yl)-1-(4-(pyridazin-4-yl)piperazin-1-yl)pentan-1-one] | < 5.00 | > 6.60 |
| C[C@H](CCC(=O)N1CC(C(O)(C(F)(F)F)C(F)(F)F)C1)[C@H]1CC[C@H]2[C@@H]3CC=C4C[C@@H](O)CC[C@]4(C)[C@H]3CC[C@]12C [Example 97, (R)-1-(3-(1,1,1,3,3,3-hexafluoro-2-hydroxypropan-2-yl)azetidin-1-yl)-4-((3S,8S,9S,10R,13R,14S,17R)-3-hydroxy-10,13-dimethyl-2,3,4,7,8,9,10,11,12,13,14,15,16,17-tetradecahydro-1H-cyclopenta[a]phenanthren-17-yl) pentan-1-one] | < 5.00 | > 6.60 |
| C[C@H](CCc1ccns1)[C@H]1CC[C@H]2[C@@H]3CC=C4C[C@@H](O)CC[C@]4(C)[C@H]3CC[C@]12C [Example 183, (3S,8S,9S,10R,13R,14S,17R)-17-((R)-4-(isothiazol-5-yl)butan-2-yl)-10,13-dimethyl-2,3,4,7,8,9,10,11,12,13,14,15,16,17-tetradecahydro-1H-cyclopenta[a]phenanthren-3-ol] | < 5.00 | 6.00 to 6.60 |
| C[C@H](CCC(=O)N1CCC(C)(CO)C1)[C@H]1CC[C@H]2[C@@H]3CC=C4C[C@@H](O)CC[C@]4(C)[C@H]3CC[C@]12C (stereo in doubt) [Example 374, (4R)-4-[(1R,3aS,3bS,7S,9aR,9bS,11aR)-7-hydroxy-9a,11a-dimethyl-1H,2H,3H,3aH,3bH,4H,6H,7H,8H,9H,9aH,9bH,10H,11H,11aH-cyclopenta[a]phenanthren-1-yl]-1-[(3R)-3-(hydroxymethyl)-3-methylpyrrolidin-1-yl]pentan-1-one] | 6.00 to 6.60 | > 6.60 |
| COc1cccc(CC[C@@H](C)[C@H]2CC[C@H]3[C@@H]4CC=C5C[C@@H](O)CC[C@]5(C)[C@H]4CC[C@]23C)n1 [Example 168, (3S,8S,9S,10R,13R,14S,17R)-17-((R)-4-(6-methoxypyridin-2-yl)butan-2-yl)-10,13-dim ethyl-2,3,4,7,8,9,10,11,12,13,14,15,16,17-tetradecahydro-1H-cyclopenta[a]phenanthren-3-ol] | < 5.00 | 6.00 to 6.60 |
| C[C@H](CCC(=O)N(C)C)[C@H]1CC[C@H]2[C@@H]3CC=C4C[C@@H](F)CC[C@]4(C)[C@H]3CC[C@]12C [Example 126, (R)-4-((3S,8S,9S,10R,13R,14S,17R)-3-fluoro-10,13-dimethyl-2,3,4,7,8,9,10,11,12,13,14,15,16,17-tetradecahydro-1H-cyclopenta[a]phenanthren-17-yl)-N,N-dimethylpentanamide] | < 5.00 | < 5.00 |
| CNC(=O)c1ccc(OC[C@@H](C)[C@H]2CC[C@H]3[C@@H]4CC=C5C[C@@H](O)CC[C@]5(C)[C@H]4CC[C@]23C)nc1 [Example 255, 6-((S)-2-((3S,8S,9S,10R,13S,14S,17R)-3-hydroxy-10,13-dimethyl-2,3,4,7,8,9,10,11,12,13,14,15,16,17-tetradecahydro-1H-cyclopenta[a]phenanthren-17-yl)propoxy)-N-methylnicotinamide] | < 5.00 | > 6.60 |
| CCOc1nccc(N2CCN(C(=O)CC[C@@H](C)[C@H]3CC[C@H]4[C@@H]5CC=C6C[C@@H](O)CC[C@]6(C)[C@H]5CC[C@]34C)CC2)n1 [Example 563, (R)-1-(4-(2-ethoxypyrimidin-4-yl)piperazin-1-yl)-4-((3S,8S,9S,10R,13R,14S,17R)-3-hydroxy-10,13-dimethyl-2,3,4,7,8,9,10,11,12,13,14,15,16,17-tetradecahydro-1H-cyclopenta[a]phenanthren-17-yl)pentan-1-one] | < 5.00 | > 6.60 |
| CC(C)ON(C)C(=O)CC[C@@H](C)[C@H]1CC[C@H]2[C@@H]3CC=C4C[C@@H](O)CC[C@]4(C)[C@H]3CC[C@]12C [Example 14, (R)-4-((3S,8S,9S,10R,13R,14S,17R)-3-hydroxy-10,13-dimethyl-2,3,4,7,8,9,10,11,12,13,14,15,16,17-tetradecahydro-1H-cyclopenta[a]phenanthren-17-yl)-N-isopropoxy-N-methylpentanamide] | 6.00 to 6.60 | 6.00 to 6.60 |
| Cc1ccc(CC[C@@H](C)[C@H]2CC[C@H]3[C@@H]4CC=C5C[C@@H](O)CC[C@]5(C)[C@H]4CC[C@]23C)nc1 [Example 131, (3S,8S,9S,10R,13R,14S,17R)-10,13-dimethyl-17-((R)-4-(5-methylpyridin-2-yl)butan-2-yl)-2,3,4,7,8,9,10,11,12,13,14,15,16,17-tetradecahydro-1H-cyclopenta[a]phenanthren-3-ol] | < 5.00 | 6.00 to 6.60 |
| C[C@H](CCC(=O)N1CCN(S(N)(=O)=O)CC1)[C@H]1CC[C@H]2[C@@H]3CC=C4C[C@@H](O)CC[C@]4(C)[C@H]3CC[C@]12C [Example 359, 4-[(4R)-4-[(1R,3aS,3bS,7S,9aR,9bS,11aR)-7-hydroxy-9a,11a-dimethyl-1H,2H,3H,3aH,3bH,4H,6H,7H,8H,9H,9aH,9bH,10H,11H,11aH-cyclopenta[a]phenanthren-1-yl]pentanoyl]piperazine-1-sulfonamide] | < 5.00 | > 6.60 |
| C[C@H](OC(=O)C(=O)N1CCC1)[C@H]1CC[C@H]2[C@@H]3CC=C4C[C@@H](O)CC[C@]4(C)[C@H]3CC[C@]12C [Example 155, (1S)-1-[(1S,3aS,3bS,7S,9aR,9bS,11aS)-7-hydroxy-9a,11a-dimethyl-1H,2H,3H,3aH,3bH,4H,6H,7H,8H,9H,9aH,9bH,10H,11H,11aH-cyclopenta[a]phenanthren-1-yl]ethyl 2-(azetidin-1-yl)-2-oxoacetate] | < 5.00 | 5.00 to 6.00 |
| CCN(C)C(=O)OC[C@@H](C)[C@H]1CC[C@H]2[C@@H]3CC=C4C[C@@H](O)CC[C@]4(C)[C@H]3CC[C@]12C [Example 352, (2S)-2-[(1R,3aS,3bS,7S,9aR,9bS,11aS)-7-hydroxy-9a,11a-dimethyl-1H,2H,3H,3aH,3bH,4H,6H,7H,8H,9H,9aH,9bH,10H,11H,11aH-cyclopenta[a]phenanthren-1-yl]propyl N-ethyl-N-methylcarbamate] | 5.00 to 6.00 | > 6.60 |
| C[C@H](CCc1ccncc1)[C@H]1CC[C@H]2[C@@H]3CC=C4C[C@@H](O)CC[C@]4(C)[C@H]3CC[C@]12C [Example 160, (3S,8S,9S,10R,13R,14S,17R)-10,13-dimethyl-17-((R)-4-(pyridin-4-yl)butan-2-yl)-2,3,4,7,8,9,10,11,12,13,14,15,16,17-tetradecahydro-1H-cyclopenta[a]phenanthren-3-ol] | < 5.00 | 6.00 to 6.60 |
| C[C@H](CCC(=O)N1CCN(C(=O)c2ccncc2)C[C@@H]1C)[C@H]1CC[C@H]2[C@@H]3CC=C4C[C@@H](O)CC[C@]4(C)[C@H]3CC[C@]12C [Example 590, (R)-4-((3S,8S,9S,10R,13R,14S,17R)-3-hydroxy-10,13-dimethyl-2,3,4,7,8,9,10,11,12,13,14,15,16,17-tetradecahydro-1H-cyclopenta[a]phenanthren-17-yl)-1-((S)-4-isonicotinoyl-2-methylpiperazin-1-yl)pentan-1-one] | < 5.00 | > 6.60 |
